Data: the NIST ThermoML archive (doi:10.1021/je1003065)
Numbers after ± are expanded uncertainties.

Assay: mn = molality of the nth substance listed, in mol/kg
Conditions: Liquid, Vibrating tube method

[Br-].[Li+] [lithium bromide] + CCO
Conditions | mass density [kg/m3]
353.15 K, 39784 kPa, m1 = 0.9499 | 834.79 ± 1.7
353.15 K, 39945 kPa, m1 = 2.833 | 939.73 ± 1.9
353.15 K, 39986 kPa, m1 = 0.2335 | 790.37 ± 1.6
353.15 K, 40152 kPa, m1 = 0.5972 | 813.43 ± 1.7
353.15 K, 49925 kPa, m1 = 0.9499 | 842.49 ± 1.7
353.15 K, 49993 kPa, m1 = 0.5972 | 821.26 ± 1.7
353.15 K, 59926 kPa, m1 = 0.9499 | 849.56 ± 1.8
353.15 K, 60014 kPa, m1 = 0.2335 | 805.45 ± 1.7
353.15 K, 60014 kPa, m1 = 2.833 | 952.95 ± 1.9
353.15 K, 60225 kPa, m1 = 0.5972 | 828.81 ± 1.7
353.15 K, 69845 kPa, m1 = 0.9499 | 856.11 ± 1.8
353.15 K, 69979 kPa, m1 = 0.5972 | 835.44 ± 1.8
353.15 K, 79924 kPa, m1 = 0.9499 | 862.38 ± 1.8
353.15 K, 79968 kPa, m1 = 2.833 | 964.64 ± 1.9
353.15 K, 80004 kPa, m1 = 0.2335 | 818.76 ± 1.8
353.15 K, 80139 kPa, m1 = 0.5972 | 841.77 ± 1.8
353.15 K, 90021 kPa, m1 = 0.9499 | 868.33 ± 1.8
353.15 K, 99895 kPa, m1 = 2.833 | 975.38 ± 2
353.15 K, 99925 kPa, m1 = 0.9499 | 873.94 ± 1.9
353.15 K, 99987 kPa, m1 = 0.2335 | 829.93 ± 1.8
353.16 K, 1827 kPa, m1 = 2.272 | 878.19 ± 1.8
353.16 K, 2037 kPa, m1 = 0.5972 | 777.89 ± 1.6
353.16 K, 5076 kPa, m1 = 2.272 | 881.19 ± 1.8
353.16 K, 30024 kPa, m1 = 2.833 | 932.51 ± 1.9
353.16 K, 50031 kPa, m1 = 0.2335 | 798.55 ± 1.7
353.16 K, 69784 kPa, m1 = 2.833 | 958.82 ± 1.9
353.16 K, 89993 kPa, m1 = 0.5972 | 847.35 ± 1.8
353.17 K, 10149 kPa, m1 = 0.5972 | 786.15 ± 1.6
353.17 K, 70025 kPa, m1 = 0.2335 | 812.93 ± 1.7
353.18 K, 100098 kPa, m1 = 0.5972 | 852.48 ± 1.8
353.2 K, 79893 kPa, m1 = 3.368 | 991.32 ± 2
353.2 K, 89986 kPa, m1 = 3.368 | 996.68 ± 2
353.2 K, 99526 kPa, m1 = 3.368 | 1001.5 ± 2
353.21 K, 1063 kPa, m1 = 3.368 | 935.92 ± 1.9
353.21 K, 4909 kPa, m1 = 3.368 | 939.35 ± 1.9
353.21 K, 10311 kPa, m1 = 3.368 | 944.02 ± 1.9
353.21 K, 30003 kPa, m1 = 3.368 | 959.64 ± 1.9
353.21 K, 40073 kPa, m1 = 3.368 | 966.87 ± 1.9
353.21 K, 49925 kPa, m1 = 3.368 | 973.5 ± 1.9
353.21 K, 59786 kPa, m1 = 3.368 | 979.72 ± 2
353.21 K, 69928 kPa, m1 = 3.368 | 985.74 ± 2
353.22 K, 19643 kPa, m1 = 3.368 | 951.68 ± 1.9
373.11 K, 79585 kPa, m1 = 2.272 | 924.75 ± 1.9
373.12 K, 2208 kPa, m1 = 3.368 | 920.02 ± 1.8
373.12 K, 5044 kPa, m1 = 3.368 | 922.8 ± 1.9
373.12 K, 19844 kPa, m1 = 3.368 | 936.43 ± 1.9
373.12 K, 59597 kPa, m1 = 2.272 | 911.69 ± 1.9
373.12 K, 69993 kPa, m1 = 2.272 | 918.69 ± 1.9
373.13 K, 10014 kPa, m1 = 3.368 | 927.55 ± 1.9
373.13 K, 20555 kPa, m1 = 0.5972 | 780.15 ± 1.6
373.13 K, 69957 kPa, m1 = 0.2335 | 799.09 ± 1.7
373.14 K, 2369 kPa, m1 = 1.462 | 814.46 ± 1.6
373.14 K, 2757 kPa, m1 = 0.5972 | 759.44 ± 1.5
373.14 K, 10024 kPa, m1 = 0.2335 | 743.18 ± 1.5
373.14 K, 10201 kPa, m1 = 0.5972 | 767.99 ± 1.6
373.14 K, 29963 kPa, m1 = 3.368 | 944.93 ± 1.9
373.14 K, 29993 kPa, m1 = 0.5972 | 788.87 ± 1.6
373.14 K, 39934 kPa, m1 = 3.368 | 952.72 ± 1.9
373.14 K, 49924 kPa, m1 = 3.368 | 960.01 ± 1.9
373.14 K, 60080 kPa, m1 = 3.368 | 966.95 ± 1.9
373.14 K, 69925 kPa, m1 = 3.368 | 973.28 ± 2
373.14 K, 79738 kPa, m1 = 0.5972 | 829.02 ± 1.8
373.14 K, 80004 kPa, m1 = 0.2335 | 806.27 ± 1.8
373.14 K, 80063 kPa, m1 = 3.368 | 979.45 ± 2
373.14 K, 89993 kPa, m1 = 3.368 | 985.2 ± 2
373.14 K, 89994 kPa, m1 = 2.272 | 930.92 ± 1.9
373.14 K, 99876 kPa, m1 = 3.368 | 990.71 ± 2
373.15 K, 1026 kPa, m1 = 0.9499 | 780.35 ± 1.6
373.15 K, 1235 kPa, m1 = 0.2335 | 732.64 ± 1.5
373.15 K, 1415 kPa, m1 = 2.833 | 892.25 ± 1.8
373.15 K, 5002 kPa, m1 = 2.833 | 895.82 ± 1.8
373.15 K, 5004 kPa, m1 = 0.2335 | 737.23 ± 1.5
373.15 K, 5019 kPa, m1 = 1.462 | 817.48 ± 1.6
373.15 K, 5412 kPa, m1 = 0.9499 | 785.62 ± 1.6
373.15 K, 10004 kPa, m1 = 2.833 | 900.66 ± 1.8
373.15 K, 10068 kPa, m1 = 0.9499 | 790.99 ± 1.6
373.15 K, 19935 kPa, m1 = 0.9499 | 801.67 ± 1.6
373.15 K, 19957 kPa, m1 = 2.833 | 909.82 ± 1.8
373.15 K, 19985 kPa, m1 = 0.2335 | 754.93 ± 1.5
373.15 K, 29956 kPa, m1 = 2.833 | 918.4 ± 1.8
373.15 K, 29974 kPa, m1 = 0.9499 | 811.66 ± 1.6
373.15 K, 39236 kPa, m1 = 0.9499 | 820.14 ± 1.7
373.15 K, 39984 kPa, m1 = 2.833 | 926.44 ± 1.9
373.15 K, 40001 kPa, m1 = 0.2335 | 774.75 ± 1.6
373.15 K, 49979 kPa, m1 = 2.272 | 904.77 ± 1.8
373.15 K, 50002 kPa, m1 = 2.833 | 933.93 ± 1.9
373.15 K, 50023 kPa, m1 = 0.9499 | 829.23 ± 1.7
373.15 K, 59924 kPa, m1 = 2.833 | 940.87 ± 1.9
373.15 K, 59926 kPa, m1 = 0.9499 | 836.92 ± 1.7
373.15 K, 59977 kPa, m1 = 1.462 | 867.61 ± 1.8
373.15 K, 59987 kPa, m1 = 0.2335 | 791.31 ± 1.7
373.15 K, 69784 kPa, m1 = 2.833 | 947.33 ± 1.9
373.15 K, 69895 kPa, m1 = 0.9499 | 844.11 ± 1.8
373.15 K, 69979 kPa, m1 = 1.462 | 874.66 ± 1.8
373.15 K, 69994 kPa, m1 = 0.5972 | 822.13 ± 1.7
373.15 K, 79936 kPa, m1 = 0.9499 | 850.88 ± 1.8
373.15 K, 80021 kPa, m1 = 2.833 | 953.61 ± 1.9
373.15 K, 89926 kPa, m1 = 2.833 | 959.33 ± 1.9
373.15 K, 89934 kPa, m1 = 0.5972 | 835.63 ± 1.8
373.15 K, 89945 kPa, m1 = 0.9499 | 857.23 ± 1.8
373.15 K, 89956 kPa, m1 = 0.2335 | 812.23 ± 1.8
373.15 K, 99845 kPa, m1 = 2.833 | 964.74 ± 2
373.15 K, 99866 kPa, m1 = 0.5972 | 840.98 ± 1.8
373.15 K, 99874 kPa, m1 = 0.2335 | 817.91 ± 1.8
373.15 K, 99968 kPa, m1 = 0.9499 | 863.3 ± 1.9
